Results: the supplement of paper PMC4862054

What was measured:
Conditions in all cases: incubation time: 72 h
HCC1143 = assay: drug sensitivity score (DSS), CellTiter-Glo (DSS (AUC-based score)); higher = stronger drug effect (viability inhibition or cytotoxicity); extreme values may be limits of the assay
Procedure, shortened: (§1)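 Each compound occupied 5 concentrations in 10-fold steps over its own 10,000-fold range in 384-well plates, into which breast cancer cell lines were seeded as 20 µl suspension. Following 72 h of incubation, CellTox Green fluorescence (485/520 nm) was measured, and CellTiter-Glo luminescence was measured after 10 min at room temperature. Plates were individually normalised to 0.1 % DMSO and a positive kill control. From the area under the fitted dose-response curve, a drug sensitivity score was calculated.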

HDQ-P1 = assay: as above
Procedure, shortened: as §1

CAL-51 = assay: as above
Procedure, shortened: as §1

CAL-148 [1] = assay: as above
Procedure, shortened: as §1

MCF-10A [2] = assay: as above
Procedure, shortened: as §1

BT-474 = assay: as above
Procedure, shortened: as §1

HCC1937 = assay: as above
Procedure, shortened: as §1

DU-4475 = assay: as above
Procedure, shortened: as §1

MDA-MB-468 [3] = assay: as above
Procedure, shortened: as §1

MDA-MB-453 = assay: as above
Procedure, shortened: as §1

MDA-MB-436 [4] = assay: as above
Procedure, shortened: as §1

HCC1599 [5] = assay: as above
Procedure, shortened: as §1

CAL-120 = assay: as above
Procedure, shortened: as §1

Hs578T = assay: as above
Procedure, shortened: as §1

CAL-85-1 [6] = assay: as above
Procedure, shortened: as §1

SK-BR-3 = assay: as above
Procedure, shortened: as §1

MDA-MB-231 [7] = assay: as above
Procedure, shortened: as §1

MFM-223 [8] = assay: as above
Procedure, shortened: as §1

BT-549 = assay: as above
Procedure, shortened: as §1

CAL-148 [9] = assay: drug sensitivity score (DSS), CellTox Green (DSS (AUC-based score)); higher = stronger drug effect (viability inhibition or cytotoxicity); extreme values may be limits of the assay
Procedure, shortened: as §1

MCF-10A [10] = assay: as above
Procedure, shortened: as §1

MDA-MB-468 [11] = assay: as above
Procedure, shortened: as §1

MDA-MB-436 [12] = assay: as above
Procedure, shortened: as §1

HCC1599 [13] = assay: as above
Procedure, shortened: as §1

CAL-85-1 [14] = assay: as above
Procedure, shortened: as §1

MDA-MB-231 [15] = assay: as above
Procedure, shortened: as §1

MFM-223 [16] = assay: as above
Procedure, shortened: as §1

Structure (SMILES)	drug sensitivity score (HCC1143)	drug sensitivity score (HDQ-P1)	drug sensitivity score (CAL-51)	drug sensitivity score (CAL-148 [1])	drug sensitivity score (MCF-10A [2])	drug sensitivity score (BT-474)	drug sensitivity score (HCC1937)	drug sensitivity score (DU-4475)	drug sensitivity score (MDA-MB-468 [3])	drug sensitivity score (MDA-MB-453)	drug sensitivity score (MDA-MB-436 [4])	drug sensitivity score (HCC1599 [5])	drug sensitivity score (CAL-120)	drug sensitivity score (Hs578T)	drug sensitivity score (CAL-85-1 [6])	drug sensitivity score (SK-BR-3)	drug sensitivity score (MDA-MB-231 [7])	drug sensitivity score (MFM-223 [8])	drug sensitivity score (BT-549)	drug sensitivity score (CAL-148 [9])	drug sensitivity score (MCF-10A [10])	drug sensitivity score (MDA-MB-468 [11])	drug sensitivity score (MDA-MB-436 [12])	drug sensitivity score (HCC1599 [13])	drug sensitivity score (CAL-85-1 [14])	drug sensitivity score (MDA-MB-231 [15])	drug sensitivity score (MFM-223 [16])
Cc1cccc(-c2nn3c(c2-c2ccnc4ccc(C(N)=O)cc24)CCC3)n1 [Galunisertib]	0	0	0.026	0	0	0	0	0	0	0	0	0	0	0	0	0	0	0	0	0	0	0	0.892	0	0	0	0
Nc1cccc2c1CN(C1CCC(=O)NC1=O)C2=O (stereo unspecified) [Lenalidomide]	0	0	0	0	0	0	0	0	0	0	0	0	2.82e-05	0	0	0	0	0	0	1.27	0	0	0	0	0	0	0
C[C@]12O[C@H](C[C@]1(O)CO)n1c3ccccc3c3c4c(c5c6ccccc6n2c5c31)CNC4=O [Lestaurtinib]	2.04	2.59	0.729	0	8.64	3.87	2.31	8.11	11.8	5.26	3.31	7.24	7.69	3.6	4.38	8.99	2.14	4.3	7.26	0	0	0	8.14	4.55	5.21	0.0124	0
O=C1c2c(O)ccc(O)c2C(=O)c2c(NCCNCCO)ccc(NCCNCCO)c21 [Mitoxantrone]	0.675	0.578	2.13	3.82	0	0	0	2.92	0	0	5.91	0	0	0	0	0	0	0	0	3.55	0	0	0	0	0	0	0
Nc1ccccc1NC(=O)c1ccc(CNc2nccc(-c3cccnc3)n2)cc1 [Mocetinostat]	5.67	4.52	8.93	7.02	1.13	6.06	6.31	9	8.18	9.7	5.31	5.88	6.33	5.95	6.32	8.95	6.07	5.07	8.43	2.32	0	10.9	10.1	1.87	7.11	8.8	0
COc1nc(N)nc2c1ncn2[C@@H]1O[C@H](CO)[C@@H](O)[C@@H]1O [Nelarabine]	0	0	0	0	0	1.66	0	0	0	0	0.149	0	0	0	0	0	0	0	0	0	0	0	0	0	0	0	0
Cc1ccc(Nc2nccc(N(C)c3ccc4c(C)n(C)nc4c3)n2)cc1S(N)(=O)=O [Pazopanib]	0	0	0	0	0	0	0	0	0	0	0	0	0.234	0.162	0	0	0	6.2	2.29	0	0	0	0	0	0.186	0	0
CS(=O)(=O)N1CCN(Cc2cc3nc(-c4cccc5[nH]ncc45)nc(N4CCOCC4)c3s2)CC1 [Pictilisib]	7.14	11.9	10.1	8.61	13.3	6.27	5.69	1.25	6.39	13.1	5.3	0	7.47	7.69	8.59	14.2	6.01	7.5	9.15	9.53	7.08	0	0	0	3.76	0	4.88
O=C(NC[C@H](O)CO)c1ccncc1Nc1ccc(I)cc1F [Pimasertib]	0	13	5.03	3.19	21.9	7.07	2.69	32.3	0	0	0.481	0	5.16	2.79	8.66	2.74	6.34	1.68	0.686	0	0	0	0	0	6.45	12.2	0
O=C(CCBr)N1CCN(C(=O)CCBr)CC1 [Pipobroman]	0	0	1.64	0	0	0	0	0	0	0	0	0	0	0	0	0	0	0	0	0	0	0	0	0	0	0	0
c1cc(CN2CCCNCCNCCCNCC2)ccc1CN1CCCNCCNCCCNCC1 [Plerixafor]	0	0	0	0	0	0	0	0	0	0	0	0	0	0	0	0	0	0	0	0	0	4.79	0	0	0	0	0
Cn1cc(CNCC2CCN(c3ncc(C(=O)NO)cn3)CC2)c2ccccc21 [Quisinostat]	16.7	10.3	12.1	18.3	11.5	13.7	8.41	16.2	13.6	23.3	9.76	12.5	12.3	13.7	16.4	19.3	13.2	9.28	11.9	14.8	0	18.9	0	1.48	20.1	13.6	4.71
CC(C)N(CCCNC(=O)Nc1ccc(C(C)(C)C)cc1)C[C@H]1O[C@@H](n2cc(Br)c3c(N)ncnc32)[C@H](O)[C@@H]1O [SGC0946]	0	0	0	0	0	0	0	0	2.46	0	0	0	0	0	0	0	0	0	0	0	0	0	0	0	0	0	0
